Assay results published in publication PMC6812009, “Covalent Aurora A regulation by the metabolic integrator coenzyme A” (Redox Biology, 2019).
Read-outs that look alike come from different tables or passages of the source.

Key:
[1] = molecular target: T1, Aurora A (active) (Homo sapiens, UniProt O14965); experiment: In vitro Aurora A kinase assay (γ33P-ATP incorporation into myelin basic protein); assay type: biochemical
T1 construct: Bacterially expressed full-length His-Aurora A was used to determine the IC50 value for CoA; made in house; host or cells: E. coli BL21 (DE3) pLysS
T1 sequence (O14965 1-403): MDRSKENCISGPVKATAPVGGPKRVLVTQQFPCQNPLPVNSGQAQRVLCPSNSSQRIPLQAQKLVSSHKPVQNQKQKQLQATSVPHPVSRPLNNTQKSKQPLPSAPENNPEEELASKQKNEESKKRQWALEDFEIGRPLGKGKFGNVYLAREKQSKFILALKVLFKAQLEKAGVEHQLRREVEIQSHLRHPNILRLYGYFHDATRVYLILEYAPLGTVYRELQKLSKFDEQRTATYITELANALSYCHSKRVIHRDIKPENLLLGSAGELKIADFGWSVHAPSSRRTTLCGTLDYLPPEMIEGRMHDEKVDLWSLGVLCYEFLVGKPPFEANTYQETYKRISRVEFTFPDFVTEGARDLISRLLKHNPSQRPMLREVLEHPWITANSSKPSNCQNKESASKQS
Procedure: (§1) Profiling of 117 protein kinases with CoA, dpCoA and ADP was carried out at the International Centre for Protein Kinase Profiling at the University of Dundee. Each compound was tested in vitro, in duplicate, at 100 μM final concentration using recombinant kinases, model substrates and optimal concentrations of ATP. Bacterially expressed full-length His-Aurora A was used to determine the IC50 value for CoA (in the presence or absence of DTT), dpCoA, ADP and desulfo-CoA. The assay was performed in the presence of 5 μM competing ATP. To examine whether the inhibitory effect of CoA on Aurora A is modulated by TPX2, IC50 values for CoA were also generated in the presence and absence of 1 μg TPX2 (residues 1–43) fragment.
Aurora A kinase activity was assayed by measuring incorporation of γ^33P-ATP into myelin basic protein (Sigma). Purified recombinant protein (100 ng) was incubated at room temperature for 30 min in a total volume of 15 μl containing 50 mM HEPES pH 7.5, 10 mM MgCl2, 1 mM EGTA, 0.05% Brij-35, 0.5 mg/ml myelin basic protein, and 5 μM γ^33P-ATP (100–10,000 dpm/pmol). The reaction was stopped by spotting the reaction mixture onto squares of P81 phosphocellulose ion exchange paper (Whatmann), which were then immersed in 1.5% (v/v) phosphoric acid. After washing twice in 1% phosphoric acid followed by two washes in distilled water, the papers were air dried and radioactivity was counted by a scintillation counter and recorded by Quantasmart version 2.03.

[2] = molecular target: T2, Aurora A (active), T288 phosphorylated (Homo sapiens, UniProt O14965); experiment: Lanthascreen Eu Kinase FRET binding assay
T2 construct: For enzyme and DSF assays, full-length human Aurora A and Aurora B and 1–43 TPX2 were produced; made in house; host or cells: E. coli
T2 sequence (O14965 1-403): T1 sequence (O14965 1-403)
Procedure: A Lanthascreen Eu Kinase FRET Binding Assay (Invitrogen) was employed to determine IC50 values for the interaction of Aurora A with CoA, dpCoA, ATP, and ADP. […] Recombinant Aurora A was incubated with Europium-conjugated anti-histidine tag antibody and an Alexa Fluor 647-labelled tracer, which binds to the ATP binding pocket of Aurora A. The close proximity of the anti-histidine (epitope-tag) antibody and the tracer results in a high degree of FRET (fluorescence resonance energy transfer) from the europium donor fluorophore to the Alexa Fluor 647 acceptor fluorophore. ATP-competitive inhibitors, such as CoA, displace the tracer from the active site, causing a loss of FRET signal. Assay set-up was performed as described by the manufacturer. Briefly, the time-resolved fluorescence resonance energy transfer assay (TR-FRET) was performed in black, low volume 384 well plates (Corning). Each well contained 5 nM kinase, 2 nM Eu-anti-His antibody and 10 nM kinase tracer 236 in kinase buffer A (50 mM Hepes pH 7.5, 10 mM MgCl2, 1 mM […], 0.01% (v/v) Brij-35), varying amounts of CoA, dpCoA, ATP, and ADP. The reaction mix was incubated for 1h at room temperature. The signal was measured at 665/620 nm emission ratio using BMG LABTECH plate reader (PHERAstar). All assays were performed using duplicates. The 11-point response curves were generated using GraphPad Prism software from the inhibition data generated.

[3] = system: ROCK 2; experiment: Kinase profiling screen (radioactive filter-binding assay); assay type: biochemical, human; details: 100 μM compound, 20 μM ATP
Procedure: as §1

[4] = system: AMPK; experiment: as above; assay type: biochemical, human; details: 100 μM compound, 50 μM ATP
Procedure: as §1

[5] = system: CAMKK; experiment: as above; assay type: biochemical, human; details: 100 μM compound, 20 μM ATP
Procedure: as §1

[6] = molecular target: p38α MAPK (Homo sapiens, UniProt Q16539); experiment: as above; assay type: biochemical; details: 100 μM compound, 50 μM ATP; read-out: Kinase activity, % of activity in the absence of inhibitor
Summary of the method: (§2)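 Residual kinase activity is read in duplicate wells containing 100 μM final test compound (CoA, dpCoA or ADP). Recombinant kinases use model substrates at ATP levels optimal for each enzyme, across a 117-kinase screen.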

[7] = molecular target: T3, BRSK1 (Homo sapiens, UniProt Q8TDC3); experiment: as above; assay type: biochemical; details: 100 μM compound, 20 μM ATP; read-out: Kinase activity, % of activity in the absence of inhibitor
T3 sequence (Q8TDC3 1-778): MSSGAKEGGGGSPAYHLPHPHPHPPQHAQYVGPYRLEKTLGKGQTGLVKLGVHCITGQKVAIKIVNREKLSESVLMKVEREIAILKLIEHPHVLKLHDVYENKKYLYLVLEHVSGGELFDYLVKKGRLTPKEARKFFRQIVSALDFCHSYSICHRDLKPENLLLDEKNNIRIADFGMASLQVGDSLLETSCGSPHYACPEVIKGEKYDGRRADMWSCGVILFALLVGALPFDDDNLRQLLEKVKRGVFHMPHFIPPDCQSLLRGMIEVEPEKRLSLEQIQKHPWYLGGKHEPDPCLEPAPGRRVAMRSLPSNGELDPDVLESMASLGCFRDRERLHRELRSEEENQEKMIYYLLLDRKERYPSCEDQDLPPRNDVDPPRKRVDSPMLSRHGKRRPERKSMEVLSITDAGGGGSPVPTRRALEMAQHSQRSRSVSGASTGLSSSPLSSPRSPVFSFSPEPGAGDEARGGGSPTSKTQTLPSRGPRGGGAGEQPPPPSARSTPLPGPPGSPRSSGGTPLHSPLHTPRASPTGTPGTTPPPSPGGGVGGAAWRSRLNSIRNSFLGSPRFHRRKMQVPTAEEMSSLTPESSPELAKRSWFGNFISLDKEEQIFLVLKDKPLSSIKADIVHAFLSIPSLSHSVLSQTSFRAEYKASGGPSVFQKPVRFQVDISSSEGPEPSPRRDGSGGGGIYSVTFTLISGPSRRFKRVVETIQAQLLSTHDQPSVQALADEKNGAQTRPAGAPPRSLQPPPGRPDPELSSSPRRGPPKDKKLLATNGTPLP
Summary of the method: as §2

[8] = 5 μM competing ATP, read-out: Aurora A (active) IC50 (μM), activity assay
[9] = T288 phosphorylated Aurora A, read-out: Aurora A (active) IC50 (μM), binding assay

Sequence of p38α MAPK (Q16539 whole entry): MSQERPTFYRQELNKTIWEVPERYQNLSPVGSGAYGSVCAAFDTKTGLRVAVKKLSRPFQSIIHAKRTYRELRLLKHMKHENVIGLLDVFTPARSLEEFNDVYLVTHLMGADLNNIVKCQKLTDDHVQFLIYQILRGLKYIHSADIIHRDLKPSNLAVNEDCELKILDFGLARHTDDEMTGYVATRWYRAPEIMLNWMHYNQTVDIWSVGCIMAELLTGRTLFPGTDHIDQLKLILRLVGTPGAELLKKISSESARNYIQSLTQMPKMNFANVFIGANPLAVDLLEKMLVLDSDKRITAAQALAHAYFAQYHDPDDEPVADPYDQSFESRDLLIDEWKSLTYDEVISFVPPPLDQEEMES

| SMILES | IC50 [1, 8] | IC50 [2, 9] | IC50 ([2]; read-out: IC50 for the interaction of active Aurora A) | Kinase activity, % of activity in the absence of inhibitor [3] | Kinase activity, % of activity in the absence of inhibitor [4] | Kinase activity, % of activity in the absence of inhibitor [5] | activity at 100 µM [6] | activity at 100 µM [7] | IC50 ([1]; 5 μM ATP, 1 mM DTT, read-out: IC50, Aurora A kinase activity in the presence of DTT) | IC50 ([1]; 5 μM ATP, absence of DTT, read-out: IC50, Aurora A kinase activity) | TPX2-induced kinase activation after pre-incubation of Aurora A with CoA ([1]; 100 μM CoA pre-incubation, DTT-sensitive) | Inhibitory effect on Aurora A in the presence of TPX2 1–43 fragment ([1]; presence of TPX2 (residues 1–43), serial dilutions of CoA) |
| --- | --- | --- | --- | --- | --- | --- | --- | --- | --- | --- | --- | --- |
| Nc1ncnc2c1ncn2C1OC(COP(=O)(O)OP(=O)(O)O)C(O)C1O (centres unmarked) [ADP] | 54 µM | 170 nM | ~177000 nM | 57.8% | 54.1% | 52.9% | 60.3% | 42.8% | – | – | – | – |
| CC(C)(COP(=O)(O)OP(=O)(O)OCC1OC(n2cnc3c(N)ncnc32)C(O)C1O)C(O)C(=O)NCCC(=O)NCCS (centres unmarked) [dpCoA, dephospho-CoA] | 17 µM | 0.3 nM | – | 96.4% | 75.9% | 71.4% | 87.7% | 96.4% | – | – | – | – |
| CC(C)(COP(=O)(O)OP(=O)(O)OC[C@H]1O[C@@H](n2cnc3c(N)ncnc32)[C@H](O)[C@@H]1OP(=O)(O)O)[C@@H](O)C(=O)NCCC(=O)NCCS [CoA, Coenzyme A] | 5 µM | 0.01 nM | – | 94.3% | 90.8% | 97.4% | 112% | 110% | 47 µM | ~5 µM | attenuated | completely abrogated the inhibitory effect |
